These results are taken from patent publication US7001619B2, “Hepatocurative effect of emblica officinalis against CYP 450 bio-activation hepatotoxicity of drugs” (Council of Scientific and Industrial Research, priority 2002, dated 2006).

Data set [1] deals with hepatotoxicity produced by galactosamine. Nature of the data set: Hepatotoxicity produced by galactosamine (not dependent on CYP 450 bioactivation), LDH and GPT leakage. In kind it is in vivo. Particulars: galactosamine alone.
For data set [2], the system named is hepatotoxicity produced by paracetamol. Description: Hepatotoxicity produced by paracetamol (CYP 450 bioactivation), LDH and GPT release in serum. Particulars: paracetamol alone. In kind it is in vivo.
The target in data set [3] is T1, CYP 450 1A1 (Homo sapiens, UniProt P04798).
T1 sequence (P04798 1-512): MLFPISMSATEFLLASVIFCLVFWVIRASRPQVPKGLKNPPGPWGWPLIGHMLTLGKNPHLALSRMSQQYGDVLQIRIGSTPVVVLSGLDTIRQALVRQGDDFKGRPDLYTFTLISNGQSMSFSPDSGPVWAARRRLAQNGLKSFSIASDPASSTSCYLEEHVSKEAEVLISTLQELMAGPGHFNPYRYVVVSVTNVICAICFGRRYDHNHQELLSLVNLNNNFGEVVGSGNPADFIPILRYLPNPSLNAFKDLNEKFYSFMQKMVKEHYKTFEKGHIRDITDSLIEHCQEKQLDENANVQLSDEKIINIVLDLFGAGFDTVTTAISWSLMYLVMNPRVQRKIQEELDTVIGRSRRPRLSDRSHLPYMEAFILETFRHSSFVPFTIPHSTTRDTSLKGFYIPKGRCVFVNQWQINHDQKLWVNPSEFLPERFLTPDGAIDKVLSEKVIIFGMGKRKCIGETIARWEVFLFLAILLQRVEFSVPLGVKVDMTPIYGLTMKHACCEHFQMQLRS
The conditions noted are these: cited from earlier work.

SMILES strings stand for the structures.

In data set [1], `N[C@H]1C(O)O[C@H](CO)[C@H](O)[C@@H]1O` (stereo partly drawn) [galactosamine] had a Toxicity of 93%.

`CC(=O)Nc1ccc(O)cc1` [paracetamol] yielded a Toxicity in data set [2] of 93%.

As for `O=C(/C=C/C=C/c1ccc2c(c1)OCO2)N1CCCCC1` [piperine], in data set [3], the “inhibition of CYP 450 1A1 (in words)” value is “specific inhibitor of CYP 450 1A1”.
